From patent US20230313181A1, “HISTIDINE-LYSINE POLYMERS AND METHODS FOR DELIVERING MRNA USING THE SAME” (UNIVERSITY OF MARYLAND, BALTIMORE, priority 2019, published 2023)
Bridges are numbered along the chain shown (N, C = ends). Roman numbers before positions name the chains, in order. Where no end group is shown, it is not given here.

Legend:
[1] = Cell viability assay (trypan blue exclusion); assay type: cell-based; details: human, MDA-MB-231 cells, HK polymer 4 μg or polyplex (4 μg HK; 1 μg mRNA), then 19 h DMEM/10% FBS
Description: Cell Viability Assay. MDA-MB-231 cells were seeded at 5.0×10^4/well in a 24-tissue culture plate and incubated overnight in DMEM supplemented with 10% FBS serum. The media was then changed to Opti-MEM and the cells were treated with either the HK polymer (4 μg) or the HK polyplex (4 μg HK; 1 μg mRNA) for 5 h. After the media was changed to DMEM/10% FBS for 19 h, the cell viability was measured using the trypan blue cell exclusion assay (Trypan Blue solution, 0.4%, Sigma-Aldrich, St. Louis, MO).
After the medium was changed to Opti-MEM in cell cultures of the MDA-MB-231 cells used in the experiment described above, either the HK polymer (4 μg) or the HK polyplex (4 μg HK; 1 μg mRNA) was added dropwise to the cells and incubated for 5 h. The media was then changed to DMEM/10% FBS for 19 h and cell viability was determined using the trypan cell exclusion assay.

MDA-MB-231 cells = test: mRNA transfection with HK associated lipid particles (HK polymer + DOTAP liposomes); assay type: cell-based; details: luciferase mRNA
Description: FIGS. 8A and 8B. Comparison of mRNA transfection with DOTAP and several HK polymers. To form HK associated lipid particles, the mRNA (1 μg) was initially mixed with the HK polymer (4 μg) for 30 min and then with the DOTAP liposomes (1 μg) for 30 min. HK polyplexes were prepared as described previously. These complexes were then added to the cells for 24 h before the luciferase activity was measured *, P<0.05; **, P<0.01; ***, P<0.001; […].
Transfection with HK associated lipid particles was done similarly as above with few exceptions. In brief, the HK polymer was mixed initially with mRNA at various ratios for 30 min in Opti-MEM. This was followed by adding the DOTAP cationic liposome (1,2-dioleoyl-3-trimethylam-monium-propane; […]; Roche, Basel, CH) for 30 additional min. The Opti-MEM mixture (50 μl) was then added dropwise to the cells.

[2] = Particle size, polydispersity index (PDI) and zeta potential of polyplexes (Zetasizer); assay type: physicochemical
Description: Particle size, polydispersity index (PDI), and zeta potential. The size, PDI, and zeta potential were determined with the Zetasizer (Malvern, Westborough, Mass.) and analyzed with software provided by the instrument manufacturer (Zetasizer software, version 6.2). Using dynamic light scattering at a 90° angle, the size of the particles were reported as the Z-average diameter from the intensity-weighted size distribution. Prior to the measurements, the samples were equilibrated to 25° C. for 2 min. Each measurement had at least ten sub-runs under the automatic mode of the software. The particle size, PDI, and zeta potential data point represent the mean±SD of three measurements. After mixing HK peptides (4 μg) and mRNA (1 μg) in 100 μl of defined media (Opti-MEM, water, or DMEM/8% FBS) for 30 min, 100 μl of additional defined media was added to the polyplex solution (total volume 200 μl) to measure the size and PDI. To determine the zeta potential, 800 μl more of the media was added (total volume 1000 μl), mixed gently, and then added to the disposable zeta cell.
Because different stabilities were observed between the H3K4b and H3K(+H)4b polyplexes, whether the sizes of these polyplexes varied based on the media in which they were prepared was investigated. […] H3K(+H)4b and H3K4b peptides (4 μg) in complex with mRNA (1 μg) were mixed with either Opti-MEM, water, or DMEM/8% FBS […]. After 1 h, the size, PDI, and zeta potential were measured.

[3] = prior studies [34, 35, 45]; cited from earlier work
[4] = polyplex HK 4 μg:mRNA 1 μg in DMEM/8% FBS
[5] = polyplex HK 4 μg:mRNA 1 μg in Opti-MEM
[6] = polyplex HK 4 μg:mRNA 1 μg in Water

I: KHHHKHHHKHHHHKHHHKKKK-NH2 / II: KHHHKHHHKHHHHKHHHK / III: KHHHKHHHKHHHHKHHHK / IV: KHHHKHHHKHHHHKHHHK (amide I:19-IV:C, I:20-III:C, I:21-II:C) [H3K(+H)4b]
viability at 5 h [1]: 96.3%
mRNA transfection compared with DOTAP liposomes (in words) (MDA-MB-231 cells): significantly better carriers of mRNA than the DOTAP liposomes
PDI [2, 4]: 0.307
Size [2, 4]: 289 ± 38.2 nm
Zeta Potential [2, 4]: −12.7 ± 1.04 mV
PDI [2, 5]: 0.362
Size [2, 5]: 1004 ± 61.1 nm
Zeta Potential [2, 5]: 2.92 ± 1.83 mV
PDI [2, 6]: 0.212
Size [2, 6]: 234.9 ± 2.7 nm
Zeta Potential [2, 6]: 20.77 ± 1.12 mV
carrier of siRNA (in words) [3]: effective carriers of siRNA
